Experimental data taken from ChEMBL document CHEMBL5303573, “Mapping human microbiome drug metabolism by gut bacteria and their genes” (Nature, 2019).

Experiment: The drug is tested on Ruminococcus torques strain: ATCC27756 for biotransformation. The drug concentrations were measured before and after a 12-h incubation by liquid-chromatography-coupled mass spectrometry (LC–MS)
Assay type: ADME
Set-up: dose 2 uM, timepoint 0 vs 12 hours
Conditions: 2 µM

Row | SMILES | Bacterial Biotransformation
1 | C[C@]12CCC(=O)C=C1[C@@H]1C[C@@H]1[C@H]1[C@@H]3[C@@H]4C[C@@H]4[C@@]4(CCC(=O)O4)[C@@]3(C)CC[C@@H]12 [DROSPIRENONE] | Compound NOT metabolized
2 | CCN(C)C(=O)Oc1cccc([C@H](C)N(C)C)c1.O=C(O)C(O)C(O)C(=O)O [RIVASTIGMINE TARTRATE] | Compound NOT metabolized

Experiment: The drug is tested on Clostridium sporogenes strain: ATCC15579 for biotransformation. The drug concentrations were measured before and after a 12-h incubation by liquid-chromatography-coupled mass spectrometry (LC–MS)
Conditions: 2 µM

Row | SMILES | Bacterial Biotransformation
3 | C[C@]12CCC(=O)C=C1[C@@H]1C[C@@H]1[C@H]1[C@@H]3[C@@H]4C[C@@H]4[C@@]4(CCC(=O)O4)[C@@]3(C)CC[C@@H]12 [DROSPIRENONE] | Compound metabolized
4 | CCN(C)C(=O)Oc1cccc([C@H](C)N(C)C)c1.O=C(O)C(O)C(O)C(=O)O [RIVASTIGMINE TARTRATE] | Compound NOT metabolized

Experiment: The drug is tested on Coprococcus comes strain: ATCC27758 for biotransformation. The drug concentrations were measured before and after a 12-h incubation by liquid-chromatography-coupled mass spectrometry (LC–MS)
Assay type: ADME
Set-up: dose 2 uM, timepoint 0 vs 12 hours
Conditions: 2 µM

Row | SMILES | Bacterial Biotransformation
5 | CCN(C)C(=O)Oc1cccc([C@H](C)N(C)C)c1.O=C(O)C(O)C(O)C(=O)O [RIVASTIGMINE TARTRATE] | Compound NOT metabolized

Experiment: The drug is tested on Odoribacter splanchnicus strain: fecal isolate for biotransformation. The drug concentrations were measured before and after a 12-h incubation by liquid-chromatography-coupled mass spectrometry (LC–MS)
Conditions: 2 µM

Row | SMILES | Bacterial Biotransformation
6 | C[C@]12CCC(=O)C=C1[C@@H]1C[C@@H]1[C@H]1[C@@H]3[C@@H]4C[C@@H]4[C@@]4(CCC(=O)O4)[C@@]3(C)CC[C@@H]12 [DROSPIRENONE] | Compound metabolized
7 | CCN(C)C(=O)Oc1cccc([C@H](C)N(C)C)c1.O=C(O)C(O)C(O)C(=O)O [RIVASTIGMINE TARTRATE] | Compound NOT metabolized

Conditions: segatella copri, 12 h, 2 µM
Description: The drug is tested on Prevotella copri strain: DSM18205 for biotransformation. The drug concentrations were measured before and after a 12-h incubation by liquid-chromatography-coupled mass spectrometry (LC–MS)

Row | SMILES | Bacterial Biotransformation
8 | C[C@]12CCC(=O)C=C1[C@@H]1C[C@@H]1[C@H]1[C@@H]3[C@@H]4C[C@@H]4[C@@]4(CCC(=O)O4)[C@@]3(C)CC[C@@H]12 [DROSPIRENONE] | Compound NOT metabolized
9 | CCN(C)C(=O)Oc1cccc([C@H](C)N(C)C)c1.O=C(O)C(O)C(O)C(=O)O [RIVASTIGMINE TARTRATE] | Compound NOT metabolized

Conditions: anaerostipes sp., 12 h, 2 µM
Description: The drug is tested on Anaerostipes sp. strain: fecal isolate for biotransformation. The drug concentrations were measured before and after a 12-h incubation by liquid-chromatography-coupled mass spectrometry (LC–MS)

Row | SMILES | Bacterial Biotransformation
10 | C[C@]12CCC(=O)C=C1[C@@H]1C[C@@H]1[C@H]1[C@@H]3[C@@H]4C[C@@H]4[C@@]4(CCC(=O)O4)[C@@]3(C)CC[C@@H]12 [DROSPIRENONE] | Compound NOT metabolized
11 | CCN(C)C(=O)Oc1cccc([C@H](C)N(C)C)c1.O=C(O)C(O)C(O)C(=O)O [RIVASTIGMINE TARTRATE] | Compound NOT metabolized

Experiment: The drug is tested on Bacteroides xylanisolvens strain: DSM18836 for biotransformation. The drug concentrations were measured before and after a 12-h incubation by liquid-chromatography-coupled mass spectrometry (LC–MS)
Conditions: 2 µM

Row | SMILES | Bacterial Biotransformation
12 | C[C@]12CCC(=O)C=C1[C@@H]1C[C@@H]1[C@H]1[C@@H]3[C@@H]4C[C@@H]4[C@@]4(CCC(=O)O4)[C@@]3(C)CC[C@@H]12 [DROSPIRENONE] | Compound metabolized
13 | CCN(C)C(=O)Oc1cccc([C@H](C)N(C)C)c1.O=C(O)C(O)C(O)C(=O)O [RIVASTIGMINE TARTRATE] | Compound NOT metabolized

Experiment: The drug is tested on Ruminococcus lactaris strain: ATCC29176 for biotransformation. The drug concentrations were measured before and after a 12-h incubation by liquid-chromatography-coupled mass spectrometry (LC–MS)
Conditions: 2 µM

Row | SMILES | Bacterial Biotransformation
14 | C[C@]12CCC(=O)C=C1[C@@H]1C[C@@H]1[C@H]1[C@@H]3[C@@H]4C[C@@H]4[C@@]4(CCC(=O)O4)[C@@]3(C)CC[C@@H]12 [DROSPIRENONE] | Compound NOT metabolized
15 | CCN(C)C(=O)Oc1cccc([C@H](C)N(C)C)c1.O=C(O)C(O)C(O)C(=O)O [RIVASTIGMINE TARTRATE] | Compound NOT metabolized

Experiment: The drug is tested on Bacteroides vulgatus strain: ATCC8482 for biotransformation. The drug concentrations were measured before and after a 12-h incubation by liquid-chromatography-coupled mass spectrometry (LC–MS)
Conditions: phocaeicola vulgatus, 2 µM

Row | SMILES | Bacterial Biotransformation
16 | C[C@]12CCC(=O)C=C1[C@@H]1C[C@@H]1[C@H]1[C@@H]3[C@@H]4C[C@@H]4[C@@]4(CCC(=O)O4)[C@@]3(C)CC[C@@H]12 [DROSPIRENONE] | Compound metabolized

Experiment: The drug is tested on Eubacterium ventriosum strain: ATCC27560 for biotransformation. The drug concentrations were measured before and after a 12-h incubation by liquid-chromatography-coupled mass spectrometry (LC–MS)
Assay type: ADME
Set-up: dose 2 uM, timepoint 0 vs 12 hours
Conditions: 2 µM

Row | SMILES | Bacterial Biotransformation
17 | C[C@]12CCC(=O)C=C1[C@@H]1C[C@@H]1[C@H]1[C@@H]3[C@@H]4C[C@@H]4[C@@]4(CCC(=O)O4)[C@@]3(C)CC[C@@H]12 [DROSPIRENONE] | Compound NOT metabolized
18 | CCN(C)C(=O)Oc1cccc([C@H](C)N(C)C)c1.O=C(O)C(O)C(O)C(=O)O [RIVASTIGMINE TARTRATE] | Compound NOT metabolized

Experiment: The drug is tested on Providencia rettgeri strain: DSM1131 for biotransformation. The drug concentrations were measured before and after a 12-h incubation by liquid-chromatography-coupled mass spectrometry (LC–MS)
Assay type: ADME
Set-up: dose 2 uM, timepoint 0 vs 12 hours
Conditions: 2 µM

Row | SMILES | Bacterial Biotransformation
19 | CCN(C)C(=O)Oc1cccc([C@H](C)N(C)C)c1.O=C(O)C(O)C(O)C(=O)O [RIVASTIGMINE TARTRATE] | Compound NOT metabolized

Experiment: The drug is tested on Dorea formicigenerans strain: ATCC27755 for biotransformation. The drug concentrations were measured before and after a 12-h incubation by liquid-chromatography-coupled mass spectrometry (LC–MS)
Conditions: 2 µM

Row | SMILES | Bacterial Biotransformation
20 | C[C@]12CCC(=O)C=C1[C@@H]1C[C@@H]1[C@H]1[C@@H]3[C@@H]4C[C@@H]4[C@@]4(CCC(=O)O4)[C@@]3(C)CC[C@@H]12 [DROSPIRENONE] | Compound NOT metabolized
21 | CCN(C)C(=O)Oc1cccc([C@H](C)N(C)C)c1.O=C(O)C(O)C(O)C(=O)O [RIVASTIGMINE TARTRATE] | Compound NOT metabolized

Experiment: The drug is tested on Bacteroides fragilis strain: HMW615 for biotransformation. The drug concentrations were measured before and after a 12-h incubation by liquid-chromatography-coupled mass spectrometry (LC–MS)
Conditions: 2 µM

Row | SMILES | Bacterial Biotransformation
22 | C[C@]12CCC(=O)C=C1[C@@H]1C[C@@H]1[C@H]1[C@@H]3[C@@H]4C[C@@H]4[C@@]4(CCC(=O)O4)[C@@]3(C)CC[C@@H]12 [DROSPIRENONE] | Compound metabolized
23 | CCN(C)C(=O)Oc1cccc([C@H](C)N(C)C)c1.O=C(O)C(O)C(O)C(=O)O [RIVASTIGMINE TARTRATE] | Compound NOT metabolized

Experiment: The drug is tested on Bacteroides uniformis strain: ATCC8492 for biotransformation. The drug concentrations were measured before and after a 12-h incubation by liquid-chromatography-coupled mass spectrometry (LC–MS)
Conditions: 2 µM

Row | SMILES | Bacterial Biotransformation
24 | C[C@]12CCC(=O)C=C1[C@@H]1C[C@@H]1[C@H]1[C@@H]3[C@@H]4C[C@@H]4[C@@]4(CCC(=O)O4)[C@@]3(C)CC[C@@H]12 [DROSPIRENONE] | Compound metabolized
25 | CCN(C)C(=O)Oc1cccc([C@H](C)N(C)C)c1.O=C(O)C(O)C(O)C(=O)O [RIVASTIGMINE TARTRATE] | Compound NOT metabolized

Experiment: The drug is tested on Enterococcus faecalis strain: V583 for biotransformation. The drug concentrations were measured before and after a 12-h incubation by liquid-chromatography-coupled mass spectrometry (LC–MS)
Conditions: 2 µM

Row | SMILES | Bacterial Biotransformation
26 | C[C@]12CCC(=O)C=C1[C@@H]1C[C@@H]1[C@H]1[C@@H]3[C@@H]4C[C@@H]4[C@@]4(CCC(=O)O4)[C@@]3(C)CC[C@@H]12 [DROSPIRENONE] | Compound NOT metabolized
27 | CCN(C)C(=O)Oc1cccc([C@H](C)N(C)C)c1.O=C(O)C(O)C(O)C(=O)O [RIVASTIGMINE TARTRATE] | Compound NOT metabolized

Conditions: akkermansia muciniphila, 12 h, 2 µM
Description: The drug is tested on Akkermansia muciniphila strain: ATCC BAA-835 for biotransformation. The drug concentrations were measured before and after a 12-h incubation by liquid-chromatography-coupled mass spectrometry (LC–MS)

Row | SMILES | Bacterial Biotransformation
28 | C[C@]12CCC(=O)C=C1[C@@H]1C[C@@H]1[C@H]1[C@@H]3[C@@H]4C[C@@H]4[C@@]4(CCC(=O)O4)[C@@]3(C)CC[C@@H]12 [DROSPIRENONE] | Compound NOT metabolized
29 | CCN(C)C(=O)Oc1cccc([C@H](C)N(C)C)c1.O=C(O)C(O)C(O)C(=O)O [RIVASTIGMINE TARTRATE] | Compound NOT metabolized

Conditions: roseburia intestinalis, 12 h, 2 µM
Description: The drug is tested on Roseburia intestinalis strain: L1-82 for biotransformation. The drug concentrations were measured before and after a 12-h incubation by liquid-chromatography-coupled mass spectrometry (LC–MS)

Row | SMILES | Bacterial Biotransformation
30 | CCN(C)C(=O)Oc1cccc([C@H](C)N(C)C)c1.O=C(O)C(O)C(O)C(=O)O [RIVASTIGMINE TARTRATE] | Compound NOT metabolized

Experiment: The drug is tested on Bifidobacterium ruminantium strain: fecal isolate for biotransformation. The drug concentrations were measured before and after a 12-h incubation by liquid-chromatography-coupled mass spectrometry (LC–MS)
Conditions: 2 µM

Row | SMILES | Bacterial Biotransformation
31 | C[C@]12CCC(=O)C=C1[C@@H]1C[C@@H]1[C@H]1[C@@H]3[C@@H]4C[C@@H]4[C@@]4(CCC(=O)O4)[C@@]3(C)CC[C@@H]12 [DROSPIRENONE] | Compound NOT metabolized
32 | CCN(C)C(=O)Oc1cccc([C@H](C)N(C)C)c1.O=C(O)C(O)C(O)C(=O)O [RIVASTIGMINE TARTRATE] | Compound NOT metabolized
